Source: paper PMC10584170, “Machine learning-based phenotypic imaging to characterise the targetable biology of Plasmodium falciparum male gametocytes for the development of transmission-blocking antimalarials” (PLOS Pathogens, 2023)

Key:
[1] = test system: P. falciparum male gametocytes; assay: P. falciparum Dual Gamete Formation Assay (PfDGFA), male readout (exflagellation); assay type: cell-based, Plasmodium falciparum NF54; conditions: for Average inhibition male (%): average of replicates; for % inhibition male (individual replicates) R1: replicate R1; for % inhibition male (individual replicates) R3: replicate R3; for % inhibition male (individual replicates) R4: replicate R4; for Activity: hit = >50% inhibition in male or female readout in at least 3 replicates, 0 = no class assigned
In short: (§1)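 Two sex-specific readouts come from one well: male exflagellation centres recorded by brightfield video right after activation, and female gametes scored by Cy3-anti-Pfs25 fluorescence after 24 h at 28°C.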

[2] = test system: P. falciparum female gametocytes; assay: P. falciparum Dual Gamete Formation Assay (PfDGFA), female readout (Pfs25-positive female gametes); assay type: cell-based, Plasmodium falciparum NF54; conditions: for Average inhibition female (%): average of replicates; for % inhibition female (individual replicates) R1: replicate R1; for % inhibition female (individual replicates) R3: replicate R3; for % inhibition female (individual replicates) R4: replicate R4
In short: as §1

[3] = 2µM, 24h preincubation with gametocytes prior to induction of gametogenesis
[4] = 2µM, 24h preincubation, hits selected on >50% inhibition in the male readout across replicates
[5] = PfDGFA at 2µM, 24h preincubation
[6] = 2µM, 24h preincubation, hits selected on >50% inhibition in the female readout across replicates
[7] = 2µM, 24h preincubation, number of replicates with >50% inhibition in the male readout
[8] = 2µM, 24h preincubation, number of replicates with >50% inhibition in the female readout
[9] = PfDGFA at 2µM, 24h preincubation with gametocytes
[10] = number of replicates with >50% inhibition in the male readout, 2µM
[11] = number of replicates with >50% inhibition in the female readout, 2µM

Row | Compound | Average inhibition male (%) [1, 3] [%] | % inhibition male (individual replicates) R1 [1, 3] [%] | % inhibition male (individual replicates) R3 [1, 3] [%] | % inhibition male (individual replicates) R4 [1, 3] [%] | Average inhibition female (%) [2, 3] [%] | % inhibition female (individual replicates) R1 [2, 3] [%] | % inhibition female (individual replicates) R3 [2, 3] [%] | % inhibition female (individual replicates) R4 [2, 3] [%] | HitlevelM [1, 7] | HitlevelF [2, 8] | also measured
1 | O=C(O)C(F)(F)F.c1cc(-c2ccc(CN3CCCCC3)cc2)cc(-c2nc3ccccc3[nH]2)c1 [TCMDC-133917] | 9.6 | 7.6 | 11.1 | 9.5 | 7.0 | 8.8 | -3.2 | 28.3 |  |  | HitlevelM [1, 4]: 0; Activity [1, 5]: 0; HitlevelF [2, 6]: 0
2 | Cc1cccc2nc(-c3ccc(-c4cccc(CN5CCC(CCN6CCCCC6)CC5)c4)s3)[nH]c12.O=C(O)C(F)(F)F [TCMDC-133923] | 52.7 | 48.5 | 59.9 | 89.6 | 32.1 | 30.9 | 27.4 | 27.6 | 2 | 0 | 
3 | Cc1cccc2nc(-c3ccc(-c4ccc(CN5CCC(CCN6CCCCC6)CC5)cc4)cc3)[nH]c12.O=C(O)C(F)(F)F [TCMDC-133929] |  |  |  |  |  |  |  |  |  |  | Average inhibition male (%) [1, 9]: 89.3%; % inhibition male (individual replicates) R1 [1, 9]: 91.7%; % inhibition male (individual replicates) R3 [1, 9]: 68.3%; % inhibition male (individual replicates) R4 [1, 9]: 101.6%; HitlevelM [1, 10]: 4; Average inhibition female (%) [2, 9]: 48.2%; % inhibition female (individual replicates) R1 [2, 9]: 36.0%; % inhibition female (individual replicates) R3 [2, 9]: 37.3%; % inhibition female (individual replicates) R4 [2, 9]: 59.9%; HitlevelF [2, 11]: 2
4 | FC(F)(F)c1ccc2[nH]c(-c3ccc(-c4cccc(CN5CCC(CCN6CCCCC6)CC5)c4)cc3)nc2c1.O=C(O)C(F)(F)F [TCMDC-133941] |  |  |  |  |  |  |  |  |  |  | Average inhibition male (%) [1, 9]: 80.4%; % inhibition male (individual replicates) R1 [1, 9]: 88.3%; % inhibition male (individual replicates) R3 [1, 9]: 55.8%; % inhibition male (individual replicates) R4 [1, 9]: 84.9%; HitlevelM [1, 10]: 4; Average inhibition female (%) [2, 9]: 50.7%; % inhibition female (individual replicates) R1 [2, 9]: 37.2%; % inhibition female (individual replicates) R3 [2, 9]: 33.9%; % inhibition female (individual replicates) R4 [2, 9]: 67.8%; HitlevelF [2, 11]: 2
5 | O=C(O)C(F)(F)F.Oc1ccc(CCNc2nc(NCCCOc3cc(CN4CCCCC4)ccc3F)nc(N3CCNCC3)n2)cc1 [TCMDC-134044] | 22.7 | 35.5 | -22.2 | 28.2 | 16.2 | 9.4 | -11.0 | 47.6 |  |  | HitlevelM [1, 4]: 0; Activity [1, 5]: 0; HitlevelF [2, 6]: 0
6 | Cc1c(Cl)cccc1S(=O)(=O)Nc1ccc(CCN2CCC(N)CC2)cc1.Cl [TCMDC-134083] | 39.0 | 41.2 | 34.9 | 36.9 | 33.7 | 28.3 | 44.7 | 16.4 | 0 | 0 | 
7 | Cl.NC1CCN(CCc2ccc(NS(=O)(=O)c3cccc4ccccc34)cc2)CC1 [TCMDC-134084] | 20.4 | 10.3 |  | 7.9 | 19.4 | 15.4 | 22.2 | 21.1 | 0 | 0 | 
8 | Cl.NC1CCN(CCc2ccc(NS(=O)(=O)c3ccc(-c4ccccc4)cc3)cc2)CC1 [TCMDC-134085] | 44.1 | 43.6 | 36.7 | 44.2 | 47.2 | 28.9 | 50.6 | 70.5 | 1 | 2 | 
9 | COc1ccc(-c2cnc(NCc3ccccc3)nc2)cc1CNC1CCN(C)CC1.O=C(O)C(F)(F)F [TCMDC-134121] | 49.5 | 40.8 |  | 53.6 | 23.3 | 22.9 | 24.0 | 18.0 | 2 | 0 | 
